In US20220033364A1, “INSECTICIDAL COMPOUNDS” (SYNGENTA CROP PROTECTION AG, priority 2018, published 2022):

Tests used:
Type in all cases: in vivo
Euschistus heros = Euschistus heros (neotropical brown stink bug) soybean leaf spray test; conditions: 120 h, spray on soybean leaves, N2 nymphs, 5 days after infestation, read-out: effect in at least one of the two categories (mortality or growth inhibition)
Protocol: Soybean leaves on agar in 24-well microtiter plates were sprayed with aqueous test solutions prepared from 10′000 ppm DMSO stock solutions. After drying the leaves were infested with N2 nymphs. The samples were assessed for mortality and growth inhibition in comparison to untreated samples 5 days after infestation.

Plutella xylostella [1] = assay: Plutella xylostella (diamond back moth) artificial diet test, eggs; conditions: 192 h, 8 days after infestation, read-out: effect in at least one of the two categories (mortality or growth inhibition)
Protocol: 24-well microtiter plates with artificial diet were treated with aqueous test solutions prepared from 10′000 ppm DMSO stock solutions by pipetting. After drying, Plutella eggs were pipetted through a plastic stencil onto a gel blotting paper and the plate was closed with it. The samples were assessed for mortality and growth inhibition in comparison to untreated samples 8 days after infestation.

Spodoptera littoralis = Spodoptera littoralis (Egyptian cotton leaf worm) cotton leaf disc test; conditions: foliar, 72 h, spray on cotton leaf discs, L1 larvae, 3 days after infestation, read-out: control (mortality, anti-feeding effect or growth inhibition)
Protocol: Cotton leaf discs were placed onto agar in 24-well microtiter plates and sprayed with aqueous test solutions prepared from 10′000 ppm DMSO stock solutions. After drying the leaf discs were infested with five L1 larvae. The samples were assessed for mortality, anti-feeding effect, and growth inhibition in comparison to untreated samples 3 days after infestation. Control of Spodoptera littoralis by a test sample is given when at least one of the categories mortality, anti-feedant effect, and growth inhibition is higher than the untreated sample.

Diabrotica balteata = Diabrotica balteata (corn root worm) maize sprout spray test; conditions: 96 h, spray on maize sprouts, L2 larvae, 4 days after infestation, read-out: effect in at least one of the two categories (mortality or growth inhibition)
Protocol: Maize sprouts placed onto an agar layer in 24-well microtiter plates were treated with aqueous test solutions prepared from 10′000 ppm DMSO stock solutions by spraying. After drying, the plates were infested with L2 larvae (6 to 10 per well). The samples were assessed for mortality and growth inhibition in comparison to untreated samples 4 days after infestation.

Plutella xylostella [2] = assay: Plutella xylostella (diamond back moth) artificial diet test, L2 larvae; conditions: 120 h, 5 days after infestation, read-out: effect in at least one of the two categories (mortality or growth inhibition)
Protocol: 24-well microtiter plates with artificial diet were treated with aqueous test solutions prepared from 10′000 ppm DMSO stock solutions by pipetting. After drying, the plates were infested with L2 larvae (10 to 15 per well). The samples were assessed for mortality and growth inhibition in comparison to untreated samples 5 days after infestation.

Myzus persicae = Myzus persicae (green peach aphid) feeding/contact activity; conditions: foliar, 144 h, spray on sunflower leaf discs, mixed ages, 6 days after infestation
Protocol: (§1) Sunflower leaf discs were placed onto agar in a 24-well microtiter plate and sprayed with aqueous test solutions prepared from 10′000 ppm DMSO stock solutions. After drying, the leaf discs were infested with an aphid population of mixed ages. The samples were assessed for mortality 6 days after infestation.

Tetranychus urticae = Tetranychus urticae (two-spotted spider mite) feeding/contact activity; conditions: foliar, 192 h, spray on bean leaf discs, mixed population (mobile stages), 8 days after infestation
Protocol: Bean leaf discs on agar in 24-well microtiter plates were sprayed with aqueous test solutions prepared from 10′000 ppm DMSO stock solutions. After drying the leaf discs were infested with a mite population of mixed ages. The samples were assessed for mortality on mixed population (mobile stages) 8 days after infestation.

Thrips tabaci = Thrips tabaci (onion thrips) feeding/contact activity; conditions: foliar, 144 h, spray on sunflower leaf discs, mixed ages, 6 days after infestation
Protocol: as §1, with “on” for “onto”, “in” for “in a”, “plates” for “plate”, “drying” for “drying,”, “a thrips” for “an aphid”

Cc1cc(C2=NO[C@@](c3cc(Cl)c(F)c(Cl)c3)(C(F)(F)F)C2)ccc1C(=O)N(COC1CC1)[C@H]1CON(S(=O)(=O)C(F)F)C1 [Compound A2, N-(cyclopropoxymethyl)-4-[(5S)-5-(3,5-dichloro-4-fluoro-phenyl)-5-(trifluoromethyl)-4H-isoxazol-3-yl]-N-[(4R)-2-(difluoromethylsulfonyl)isoxazolidin-4-yl]-2-methyl-benzamide]
≥ 80%: percent effect (mortality or growth inhibition) at 200 ppm (Euschistus heros) | percent effect (mortality or growth inhibition) at 200 ppm (Plutella xylostella [1]) | percent control (mortality, anti-feedant effect or growth inhibition) at 200 ppm (Spodoptera littoralis)

Cc1cc(C2=NO[C@@](c3cc(Cl)c(F)c(Cl)c3)(C(F)(F)F)C2)ccc1C(=O)N(C(=O)C1CC1)[C@H]1CON(S(=O)(=O)C(F)F)C1 [Compound A1, N-(cyclopropanecarbonyl)-4-[(5S)-5-(3,5-dichloro-4-fluoro-phenyl)-5-(trifluoromethyl)-4H-isoxazol-3-yl]-N-[(4R)-2-(difluoromethylsulfonyl)isoxazolidin-4-yl]-2-methyl-benzamide]
≥ 80%: percent effect (mortality or growth inhibition) at 200 ppm (Diabrotica balteata) | percent effect (mortality or growth inhibition) at 200 ppm (Euschistus heros) | percent effect (mortality or growth inhibition) at 200 ppm (Plutella xylostella [2]) | mortality at 200 ppm (Myzus persicae) | percent control (mortality, anti-feedant effect or growth inhibition) at 200 ppm (Spodoptera littoralis) | mortality at 200 ppm (Tetranychus urticae) | mortality at 200 ppm (Thrips tabaci)
